Reference: BindingDB's records for doi:10.1021/jm030505a (Abbott Laboratories, 2004)
pEC50: −log10 of the molar value.

Experiments:
[1] = In vitro effective concentration tested on HEK293 cells co-transfected with ferret Dopamine receptor D4 using FLIPR assay
[2] = In vitro effective concentration tested on HEK293 cells co-transfected with ferret Dopamine receptor D2 using FLIPR assay

Row | pEC50 [1] | pEC50 [2] | SMILES
1 | 8.57 | – | NCCc1ccc(O)c(O)c1
2 | 8.82 | – | CN1CCc2cccc3c2[C@H]1Cc1ccc(O)c(O)c1-3 [APOKYN]
3 | 7.63 | – | c1ccc(N2CCN(Cc3nc4ccccc4[nH]3)CC2)nc1 [2-((4-(pyridin-2-yl)piperazin-1-yl)methyl)-1H-benzo[d]imidazole]
4 | 7.66 | 6.28 | Fc1ccc2[nH]c(CN3CCN(c4ccccn4)CC3)cc2c1 [5-Fluoro-2-(4-pyridin-2-yl-piperazin-1-ylmethyl)-1H-indole]
